Experimental data published in PMC4003287, “Fast and economic immobilization methods described for non-commercial Pseudomonas lipases” (BMC Biotechnology, 2014).

Tests used:
[1] = molecular target: T1, LipA (Pseudomonas sp. 42A2, UniProt B3GVV8); test: transesterification to FAMEs, TLC, immobilized crude enzyme; format: biochemical; conditions: methanol 15% w/w, water 10% w/w, 30°C, 24 h; triolein of 65% purity (with di- and monolein); FAMEs seen with EP100 and Celite 545 preparations
T1 construct: secreted lipase, co-expressed with foldase gene lipH of 42A2 in pBBR1MCS, host P. aeruginosa PABST7.1 (PAO1 lipA lipH deletion); crude culture supernatant, adsorbed on EP100, MP1000 or Celite 545
T1 sequence (B3GVV8 27-311): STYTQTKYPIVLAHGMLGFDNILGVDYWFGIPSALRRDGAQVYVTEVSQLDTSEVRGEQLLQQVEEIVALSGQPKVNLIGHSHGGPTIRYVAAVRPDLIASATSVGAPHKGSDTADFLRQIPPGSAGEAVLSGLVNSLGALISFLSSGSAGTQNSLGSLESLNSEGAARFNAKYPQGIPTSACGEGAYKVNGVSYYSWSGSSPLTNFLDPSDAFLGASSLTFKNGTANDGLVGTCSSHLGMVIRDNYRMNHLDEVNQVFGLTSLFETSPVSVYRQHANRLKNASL

[2] = molecular target: T2, LipC (Pseudomonas sp. 42A2, UniProt B3GVV9); test: as above; format: biochemical; conditions: methanol 15% w/w, water 10% w/w, room temperature, 24 h; triolein of 65% purity (with di- and monolein); FAMEs seen with EP100 and MP1000 preparations
T2 construct: secreted lipase, co-expressed with foldase gene lipH of 42A2 in pBBR1MCS, host P. aeruginosa PABST7.1 (PAO1 lipA lipH deletion); crude culture supernatant, adsorbed on EP100, MP1000 or Celite 545
T2 sequence (B3GVV9 24-309): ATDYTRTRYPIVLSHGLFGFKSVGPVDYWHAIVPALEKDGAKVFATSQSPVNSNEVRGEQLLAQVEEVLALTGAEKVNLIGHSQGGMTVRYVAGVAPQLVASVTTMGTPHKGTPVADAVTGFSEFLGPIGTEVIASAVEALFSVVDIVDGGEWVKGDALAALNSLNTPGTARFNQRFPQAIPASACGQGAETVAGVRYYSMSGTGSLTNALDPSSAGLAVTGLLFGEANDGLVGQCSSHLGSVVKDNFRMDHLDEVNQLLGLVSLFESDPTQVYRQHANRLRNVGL

`CCCCCCCC/C=C\CCCCCCCC(=O)OCC(COC(=O)CCCCCCC/C=C\CCCCCCCC)OC(=O)CCCCCCC/C=C\CCCCCCCC` [triolein] was tested, and the “transesterification to FAMEs, TLC, immobilized crude enzyme” value [1] was “LipA, LipC and LipCmut produced a visible FAMEs spot when analyzed by TLC” and the “transesterification to FAMEs, TLC, immobilized crude enzyme” value [2] was “LipA, LipC and LipCmut produced a visible FAMEs spot when analyzed by TLC”.
